This passage reports EC50 results from US10208074B2, “Pyrazole compounds and method for making and using the compounds” (Rigel Pharmaceuticals, Inc., priority 2015, dated 2019).

In one assay the test system is IL-23 (p19/p40). As to the kind of experiment: IL23-p19 ELISA, Dendritic, LPS (compound screening using DC cells). Particulars: PBMC-derived DC cells, IFNγ primed, LPS 1 μg/ml, 18 hours, 10 pt, read-out: IL23-p19 ELISA, Dendritic, LPS, 10 pt, EC50. The format is cell-based, Human. The method, boiled down:
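Human PBMC-derived dendritic cells (7 d GM-CSF 100 ng/ml + IL-4 20 ng/ml), primed 24 h with IFNγ 50 ng/ml, pre-incubated 1 h with compound, then stimulated 18 h with LPS 1 μg/ml. Supernatant IL-23 measured by p19-capture/p40-detection chemiluminescent ELISA; CellTiter Glo checks cytotoxicity.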
On the technique in general: In an ELISA, binding on a coated surface is turned into a signal by an enzyme label.

Another assay deals with IL-23p19. As to the kind of experiment: LPS induced IL23p19 in THP-1 cells (with IFNγ primed) assay. The format is cell-based, Human. As to conditions: THP-1 cells, IFNγ primed, LPS 1 ug/mL, 18 hours, 10 pt, read-out: IL23-p19 ELISA, THP1-IFNy, LPS, 10 pt EC50. The essentials: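 THP-1 cells primed ~18 h with IFNγ (50 ng/mL), pre-incubated 1 h with compound at 37 °C, then stimulated 18 h with LPS (1 ug/mL final). Supernatant IL-23p19 measured by sandwich ELISA with chemiluminescent read-out; EC50 from curve fitting. Toxicity checked on the remaining cells by Cell Titer Glo.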

Where a name gives a salt, the structure may show the parent alone. Read-outs that look alike come from different tables or passages of the source.

For `Cn1cc(NC(=O)c2ccc(-c3cn[nH]c3)o2)c(-c2ccccn2)n1` [Compound I-77, N-{1-Methyl-3-(pyridine-2-yl)-1H-pyrazol-4-yl}-5-(1H-pyrazol-4-yl)furan-2-carboxamide, free base], the EC50 (in general, the concentration needed to bring the measured effect to its halfway point) in the assay with IL-23 (p19/p40) came out at 41 nM; in the assay with IL-23p19, 50.4 nM.

In the case of `O=C(Nc1cn(C2CNC2)nc1-c1ccccn1)c1ccc(-c2cn[nH]c2)o1` [Compound I-78, N-{1-(Azetidin-3-yl)-3-(pyridine-2-yl)-1H-pyrazol-4-yl}-5-(1H-pyrazol-4-yl)furan-2-carboxamide, TFA salt], the EC50 with IL-23 (p19/p40) (Homo sapiens, 18 h) came to 105 nM; in the assay with IL-23p19 (Homo sapiens, THP-1, 18 h), 78.4 nM.

Take `Cn1cc(NC(=O)c2ccc(-c3cnn(COP(=O)(OC(C)(C)C)OC(C)(C)C)c3)o2)c(-c2ccccn2)n1` [Compound I-80, Di-tert-butyl-[[4-{4-(5-((1-methyl-3-(pyridine-2-yl)-1H-pyrazol-4-yl)carbamoyl)furan-2-yl)-1H-pyrazol-1-yl}methyl] phosphate]: the EC50 in the assay with IL-23 (p19/p40) (Homo sapiens, 18 h) is 2060 nM; with IL-23p19 (Homo sapiens, THP-1, 18 h) it was 2220 nM.

Turning to `Cn1cc(NC(=O)c2ccc(-c3cnn(COP(=O)(O)O)c3)o2)c(-c2ccccn2)n1` [Compound I-81, [4-{5-((1-Methyl-3-(pyridine-2-yl)-1H-pyrazol-4-yl)carbamoyl)furan-2yl}-1H-pyrazol-1-yl]methyl dihydrogen phosphate], the concentration giving a half-maximal response (EC50) in the assay with IL-23 (p19/p40) (Homo sapiens, 18 h) turned out to be 960 nM; in the assay with IL-23p19 (Homo sapiens, THP-1, 18 h), 153 nM.

With `Cn1cc(NC(=O)c2ccc(-c3cnn(COP(=O)(O)O)c3)o2)c(-c2ccccn2)n1` [Compound I-82, Sodium [4-{5-((1-Methyl-3-(pyridine-2-yl)-1H-pyrazol-4-yl)carbamoyl)furan-2-yl}-1H-pyrazol-1-yl]methyl phosphate], the results for the EC50 in the assay on IL-23 (p19/p40) (phosphate) and in the assay on IL-23p19 (phosphate) were 780 nM and 205 nM, respectively.

For the compound `CC(=O)N1CC(n2cc(NC(=O)c3ccc(-c4cn[nH]c4)o3)c(-c3ccccn3)n2)C1` [Compound I-83, N-{1-(1-Acetylazetidin-3-yl)-3-(pyridine-2-yl)-1H-pyrazol-4-yl}-5-(1H-pyrazol-4-yl)furan-2-carboxamide, free base], the EC50 in the assay with IL-23 (p19/p40) (Homo sapiens, 18 h) was 93.2 nM; with IL-23p19 (Homo sapiens, THP-1, 18 h), 34.8 nM.

With `CC(C)(C)NC(=O)N1CC(n2cc(NC(=O)c3ccc(-c4cn[nH]c4)o3)c(-c3ccccn3)n2)C1` [Compound I-84, 3-[4-{5-(1H-Pyrazol-4-yl)furan-2-carboxamido}-3-(pyridine-2-yl)-1H-pyrazol-1-yl]-N-(tert-butyl)azetidine-1-carboxamide, free base], the EC50 in the assay with IL-23 (p19/p40) (Homo sapiens, 18 h) is 97.7 nM; in the assay with IL-23p19 (Homo sapiens, THP-1, 18 h), 42.3 nM.

Regarding `CC(C)NC(=O)N1CC(n2cc(NC(=O)c3ccc(-c4cn[nH]c4)o3)c(-c3ccccn3)n2)C1` [Compound I-85, 3-[4-{5-(1H-Pyrazol-4-yl)furan-2-carboxamido}-3-(pyridine-2-yl)-1H-pyrazol-1-yl]-N-isopropylazetidine-1-carboxamide, free base], the EC50 in the assay with IL-23 (p19/p40) (Homo sapiens, 18 h) stood at 19.6 nM; in the assay on IL-23p19 (Homo sapiens, THP-1, 18 h) it was 76.7 nM.

With `CCCNC(=O)N1CC(n2cc(NC(=O)c3ccc(-c4cn[nH]c4)o3)c(-c3ccccn3)n2)C1` [Compound I-86, 3-[4-{5-(1H-Pyrazol-4-yl)furan-2-carboxamido}-3-(pyridine-2-yl)-1H-pyrazol-1-yl]-N-propylazetidine-1-carboxamide, free base], the concentration giving a half-maximal response (EC50) came to 63.7 nM in the assay with IL-23 (p19/p40) (Homo sapiens, 18 h) and 61.4 nM in the assay on IL-23p19 (Homo sapiens, THP-1, 18 h).

As to `O=C(Nc1cn(C2CN(C(=O)NC3CC3)C2)nc1-c1ccccn1)c1ccc(-c2cn[nH]c2)o1` [Compound I-87, 3-[4-{5-(1H-Pyrazol-4-yl)furan-2-carboxamido}-3-(pyridine-2-yl)-1H-pyrazol-1-yl]-N-cyclopropylazetidine-1-carboxamide, formate salt], the EC50 in the assay on IL-23 (p19/p40) (Homo sapiens, 18 h) turned out to be 105 nM; in the assay on IL-23p19 (Homo sapiens, THP-1, 18 h), 43.3 nM.

Consider `O=C(Nc1cn(C2CN(C(=O)C3CC3)C2)nc1-c1ccccn1)c1ccc(-c2cn[nH]c2)o1` [Compound I-89, N-[1-{1-(Cyclopropanecarbonyl)azetidin-3-yl}-3-(pyridine-2-yl)-1H-pyrazol-4-yl]-5-(1H-pyrazol-4-yl)furan-2-carboxamide, formate salt], for which the EC50 with IL-23 (p19/p40) (Homo sapiens, 18 h) worked out at 23.1 nM; with IL-23p19 (Homo sapiens, THP-1, 18 h) it was 16.6 nM.

In the case of `CC(C)(C)C(=O)N1CC(n2cc(NC(=O)c3ccc(-c4cn[nH]c4)o3)c(-c3ccccn3)n2)C1` [Compound I-91, N-[1-{1-Pivaloylazetidin-3-yl}-3-(pyridine-2-yl)-1H-pyrazol-4-yl]-5-(1H-pyrazol-4-yl)furan-2-carboxamide, formate salt], the EC50 stood at 10.6 nM in the assay with IL-23 (p19/p40) (Homo sapiens, 18 h) and 12.2 nM with IL-23p19 (Homo sapiens, THP-1, 18 h).

Regarding `O=C(Nc1cn(C2CN(C(=O)N3CCCC3)C2)nc1-c1ccccn1)c1ccc(-c2cn[nH]c2)o1` [Compound I-93, 5-(1H-Pyrazol-4-yl)-N-{3-(pyridine-2-yl)-1-(pyrrolidine-1-carbonyl)azetidin-3-yl}-1H-pyrazol-4-yl)furan-2-carboxamide, formate salt], the 50% effective concentration (EC50) in the assay with IL-23 (p19/p40) (Homo sapiens, 18 h) came out at 8 nM; in the assay with IL-23p19 (Homo sapiens, THP-1, 18 h), 10.8 nM.

With `CC(C)C(=O)N1CC(n2cc(NC(=O)c3ccc(-c4cn[nH]c4)o3)c(-c3ccccn3)n2)C1` [Compound I-95, N-[1-{1-Isobutyrylazetidin-3-yl}-3-(pyridine-2-yl)-1H-pyrazol-4-yl]-5-(1H-pyrazol-4-yl)furan-2-carboxamide, formate salt], the concentration for a half-maximal effect (EC50) with IL-23 (p19/p40) (Homo sapiens, 18 h) was found to be 33.8 nM; in the assay on IL-23p19 (Homo sapiens, THP-1, 18 h), 67.8 nM.

With `O=C(Nc1cn(C2CN(CC(F)(F)F)C2)nc1-c1ccccn1)c1ccc(-c2cn[nH]c2)o1` [Compound I-97, TFA salt], the EC50 in the assay on IL-23 (p19/p40) (Homo sapiens, 18 h) amounted to 32.9 nM; in the assay on IL-23p19 (Homo sapiens, THP-1, 18 h), 36.2 nM.

Turning to `CCCC(=O)N1CC(n2cc(NC(=O)c3ccc(-c4cn[nH]c4)o3)c(-c3ccccn3)n2)C1` [Compound I-99, N-[1-{1-Butyrylazetidin-3-yl}-3-(pyridine-2-yl)-1H-pyrazol-4-yl]-5-(1H-pyrazol-4-yl)furan-2-carboxamide, formate salt], the concentration giving a half-maximal response (EC50) in the assay on IL-23 (p19/p40) (Homo sapiens, 18 h) was 15.6 nM; with IL-23p19 (Homo sapiens, THP-1, 18 h), 18 nM.

Turning to `CN1CC(n2cc(NC(=O)c3ccc(-c4cn[nH]c4)o3)c(-c3ccccn3)n2)C1` [Compound I-101, N-{1-(1-Methylazetidin-3-yl)-3-(pyridine-2-yl)-1H-pyrazol-4-yl}-5-(1H-pyrazol-4-yl)furan-2-carboxamide, formate salt], the EC50 in the assay with IL-23 (p19/p40) (Homo sapiens, 18 h) is 50.1 nM; in the assay with IL-23p19 (Homo sapiens, THP-1, 18 h), 14.3 nM.

As for `O=C(Nc1cn(C2CN(C(=O)C3CC3(F)F)C2)nc1-c1ccccn1)c1ccc(-c2cn[nH]c2)o1` (stereo not drawn) [Compound I-103, N-[1-{1-(2,2-difluorocyclopropane-1-carbonyl)azetidin-3-yl}-3-(pyridine-2-yl)-1H-pyrazol-4-yl]-5-(1H-pyrazol-4-yl)furan-2-carboxamide, formate salt], the 50% effective concentration (EC50) is 55.4 nM with IL-23 (p19/p40) (Homo sapiens, 18 h) and 31 nM with IL-23p19 (Homo sapiens, THP-1, 18 h).

For the compound `CN1CCN(c2ccc(-c3nn(C)cc3NC(=O)c3ccc(-c4cn[nH]c4)o3)nc2)CC1` [Compound I-106, N-(1-methyl-3-(5-(4-methylpiperazin-1-yl)pyridin-2-yl)-1H-pyrazol-4-yl)-5-(1H-pyrazol-4-yl)furan-2-carboxamide], the EC50 is 1220 nM with IL-23 (p19/p40) (Homo sapiens, 18 h) and 18900 nM in the assay on IL-23p19 (Homo sapiens, THP-1, 18 h).

Consider `Cn1cc(NC(=O)c2ccc(-c3cn[nH]c3)o2)c(-c2ccc(OCC(C)(C)O)cn2)n1` [Compound I-107, N-(3-(5-(2-hydroxy-2-methylpropoxy)pyridin-2-yl)-1-methyl-1H-pyrazol-4-yl)-5-(1H-pyrazol-4-yl)furan-2-carboxamide], for which the EC50 in the assay with IL-23 (p19/p40) (Homo sapiens, 18 h) stood at 305 nM; with IL-23p19 (Homo sapiens, THP-1, 18 h), 860 nM.

For the compound `Cn1cc(NC(=O)c2ccc(-c3cn[nH]c3)o2)c(-c2ccc(OC3COC3)cn2)n1` [Compound I-108, N-(1-methyl-3-(5-(oxetan-3-yloxy)pyridin-2-yl)-1H-pyrazol-4-yl)-5-(1H-pyrazol-4-yl)furan-2-carboxamide], the EC50 in the assay on IL-23 (p19/p40) (Homo sapiens, 18 h) turned out to be 730 nM; in the assay with IL-23p19 (Homo sapiens, THP-1, 18 h), 491 nM.

For the compound `COc1ccc(-c2nn(C)cc2NC(=O)c2ccc(-c3cn[nH]c3)o2)nc1` [Compound I-109, N-(3-(5-methoxypyridin-2-yl)-1-methyl-1H-pyrazol-4-yl)-5-(1H-pyrazol-4-yl)furan-2-carboxamide], the EC50 in the assay on IL-23 (p19/p40) (Homo sapiens, 18 h) turned out to be 22.1 nM; with IL-23p19 (Homo sapiens, THP-1, 18 h), 104 nM.

Turning to `CC(C)n1cc(NC(=O)c2ccc(-c3cn[nH]c3)o2)c(-c2ccccn2)n1` [Compound I-110, N-(1-isopropyl-3-(pyridin-2-yl)-1H-pyrazol-4-yl)-5-(1H-pyrazol-4-yl)furan-2-carboxamide], the EC50 in the assay on IL-23 (p19/p40) (Homo sapiens, 18 h) amounted to 388 nM; in the assay with IL-23p19 (Homo sapiens, THP-1, 18 h), 279 nM.

With `O=C(Nc1cn(CCN2CCOCC2)nc1-c1ccccn1)c1ccc(-c2cn[nH]c2)o1` [Compound I-111, N-(1-(2-morpholinoethyl)-3-(pyridin-2-yl)-1H-pyrazol-4-yl)-5-(1H-pyrazol-4-yl)furan-2-carboxamide], the half-maximal effective concentration (EC50) is 26.8 nM with IL-23 (p19/p40) (Homo sapiens, 18 h) and 29.1 nM in the assay with IL-23p19 (Homo sapiens, THP-1, 18 h).
